Assay results from ChEMBL document CHEMBL5576101, “Discovery of 1,2,3-triazole-based pleuromutilin derivatives as potent gram-positive antibacterial agents” (2024).
Values after ≈ are worked out from the molar mass of the structure shown. Active and inactive are the calls of the source. No cut-off for these calls is given here.

Legend:
Enterococcus faecalis [1] = assay: Antibacterial activity against Enterococcus faecalis by broth dilution method; type: functional
Staphylococcus aureus [2] = assay: Antibacterial activity against methicillin-resistant Staphylococcus aureus by broth dilution method; type: functional
Escherichia coli = assay: Antibacterial activity against Escherichia coli by broth dilution method; type: functional
[3] = system: Staphylococcus epidermidis; assay: Antibacterial activity against Staphylococcus epidermidis by broth dilution method; type: functional
Staphylococcus aureus [4] = assay: Antibacterial activity against Staphylococcus aureus by broth dilution method; type: functional
[5] = system: Staphylococcus epidermidis; assay: Bacteriostatic activity against Staphylococcus epidermidis assessed as reduction in bacterial growth at 1 times MIC measured after 24 hrs by time kill assay; type: functional, organism-based
Staphylococcus aureus [6] = assay: Bacteriostatic activity against Staphylococcus aureus assessed as reduction in bacterial growth at 1 times MIC measured after 24 hrs by time kill assay; type: functional, organism-based
Enterococcus faecalis [7] = assay: Potency index, ratio of tiamulin MIC to test compound MIC for antibacterial activity Enterococcus faecalis by broth dilution method; type: functional
Staphylococcus aureus [8] = assay: Potency index, ratio of tiamulin MIC to test compound MIC for antibacterial activity Staphylococcus aureus by broth dilution method; type: functional
[9] = system: Staphylococcus epidermidis; assay: Potency index, ratio of tiamulin MIC to test compound MIC for antibacterial activity Staphylococcus epidermidis by broth dilution method; type: functional
Staphylococcus aureus [10] = assay: Bacteriostatic activity against methicillin-resistant Staphylococcus aureus assessed as log reduction in viable cell count at 6 times MIC measured after 24 hrs by time kill assay; type: functional
Staphylococcus aureus [11] = assay: Bacteriostatic activity against Staphylococcus aureus assessed as log reduction in viable cell count at 6 times MIC measured after 24 hrs by time kill assay; type: functional
Staphylococcus aureus [12] = assay: Bacteriostatic activity against Staphylococcus aureus assessed as log reduction in bacterial growth at 4 times MIC measured after 24 hrs by time kill assay; type: functional
Staphylococcus aureus [13] = assay: Potency index, ratio of tiamulin MIC to test compound MIC for antibacterial activity methicillin-resistant Staphylococcus aureus by broth dilution method; type: functional
Staphylococcus aureus [14] = assay: Bacteriostatic activity against Staphylococcus aureus assessed as log reduction in bacterial growth at 2 times MIC measured after 24 hrs by time kill assay; type: functional
Staphylococcus aureus [15] = assay: Bacteriostatic activity against methicillin-resistant Staphylococcus aureus assessed as reduction in bacterial growth at 1 times MIC measured after 24 hrs by time kill assay; type: functional, organism-based
[16] = system: Staphylococcus epidermidis; assay: Bacteriostatic activity against Staphylococcus epidermidis assessed as log reduction in bacterial growth at 6 times MIC measured after 24 hrs by time kill assay; type: functional

Structure (SMILES)	MIC (Enterococcus faecalis [1])	MIC (Staphylococcus aureus [2])	MIC (Escherichia coli)	MIC [3]	MIC (Staphylococcus aureus [4])	Activity [5]	Activity (Staphylococcus aureus [6])	Ratio (Enterococcus faecalis [7])	Ratio (Staphylococcus aureus [8])	Ratio [9]	log(activity) (Staphylococcus aureus [10])	log(activity) (Staphylococcus aureus [11])	log(activity) (Staphylococcus aureus [12])	Ratio (Staphylococcus aureus [13])	log(activity) (Staphylococcus aureus [14])	Activity (Staphylococcus aureus [15])	log(activity) [16]
C=C[C@]1(C)C[C@@H](OC(=O)CSC(C)(C)CNC(=O)Cn2cc(Cc3cccnc3)nn2)[C@]2(C)[C@H](C)CC[C@]3(CCC(=O)[C@H]32)[C@@H](C)[C@@H]1O	0.062 µg/mL (≈ 0.0931 µM)	2 µg/mL (≈ 3 µM)	> 64 µg/mL	0.25 µg/mL (≈ 0.375 µM)	16 µg/mL (≈ 24 µM)												
C=C[C@]1(C)C[C@@H](OC(=O)CSC(C)(C)CNC(=O)Cn2cc(CNc3ccc(Br)cc3)nn2)[C@]2(C)[C@H](C)CC[C@]3(CCC(=O)[C@H]32)[C@@H](C)[C@@H]1O	> 64 µg/mL	64 µg/mL (≈ 84.3 µM)	> 64 µg/mL	16 µg/mL (≈ 21.1 µM)	> 64 µg/mL												
C=C[C@]1(C)C[C@@H](OC(=O)CSC(C)(C)CNC(=O)Cn2cc(COc3ccc([N+](=O)[O-])cc3[N+](=O)[O-])nn2)[C@]2(C)[C@H](C)CC[C@]3(CCC(=O)[C@H]32)[C@@H](C)[C@@H]1O	0.25 µg/mL (≈ 0.324 µM)	0.062 µg/mL (≈ 0.0804 µM)	> 64 µg/mL	0.062 µg/mL (≈ 0.0804 µM)	0.062 µg/mL (≈ 0.0804 µM)	Active	Active	128	64	8	4.3	4.1	3.38	4	1.98	Active	
C=C[C@]1(C)C[C@@H](OC(=O)CSC(C)(C)CNC(=O)Cn2cc(CNc3ccc(CCCCCC)cc3)nn2)[C@]2(C)[C@H](C)CC[C@]3(CCC(=O)[C@H]32)[C@@H](C)[C@@H]1O	> 64 µg/mL	8 µg/mL (≈ 10.5 µM)	> 64 µg/mL	2 µg/mL (≈ 2.62 µM)	32 µg/mL (≈ 41.9 µM)												
C=C[C@]1(C)C[C@@H](OC(=O)CSC(C)(C)CNC(=O)Cn2cc(COc3ccccc3)nn2)[C@]2(C)[C@H](C)CC[C@]3(CCC(=O)[C@H]32)[C@@H](C)[C@@H]1O	16 µg/mL (≈ 23.5 µM)	8 µg/mL (≈ 11.7 µM)	> 64 µg/mL	8 µg/mL (≈ 11.7 µM)	64 µg/mL (≈ 94 µM)												
C=C[C@]1(C)C[C@@H](OC(=O)CSC(C)(C)CNC(=O)Cn2cc(Cc3cccc(N)c3)nn2)[C@]2(C)[C@H](C)CC[C@]3(CCC(=O)[C@H]32)[C@@H](C)[C@@H]1O	> 64 µg/mL	0.062 µg/mL (≈ 0.0912 µM)	> 64 µg/mL	0.062 µg/mL (≈ 0.0912 µM)	> 64 µg/mL	Active	Active				4.3	4.1				Active	
C=C[C@]1(C)C[C@@H](OC(=O)CSC(C)(C)CNC(=O)Cn2cc(Cc3ccc(OC)cc3)nn2)[C@]2(C)[C@H](C)CC[C@]3(CCC(=O)[C@H]32)[C@@H](C)[C@@H]1O	1 µg/mL (≈ 1.44 µM)	> 64 µg/mL	> 64 µg/mL	0.5 µg/mL (≈ 0.719 µM)	0.5 µg/mL (≈ 0.719 µM)												
C=C[C@]1(C)C[C@@H](OC(=O)CSCCN(CC)CC)[C@]2(C)[C@H](C)CC[C@]3(CCC(=O)[C@H]32)[C@@H](C)[C@@H]1O [TIAMULIN]	32 µg/mL (≈ 64.8 µM)	0.25 µg/mL (≈ 0.506 µM)	> 64 µg/mL	0.5 µg/mL (≈ 1.01 µM)	4 µg/mL (≈ 8.1 µM)												
C=C[C@]1(C)C[C@@H](OC(=O)CSC(C)(C)CNC(=O)Cn2cc(CNc3ccc(OCCCCCC)cc3)nn2)[C@]2(C)[C@H](C)CC[C@]3(CCC(=O)[C@H]32)[C@@H](C)[C@@H]1O	0.062 µg/mL (≈ 0.0795 µM)	16 µg/mL (≈ 20.5 µM)	> 64 µg/mL	0.5 µg/mL (≈ 0.641 µM)	> 64 µg/mL												
C=C[C@]1(C)C[C@@H](OC(=O)CSC(C)(C)CNC(=O)Cn2cc(CNc3ccc([N+](=O)[O-])cc3)nn2)[C@]2(C)[C@H](C)CC[C@]3(CCC(=O)[C@H]32)[C@@H](C)[C@@H]1O	2 µg/mL (≈ 2.76 µM)	0.25 µg/mL (≈ 0.345 µM)	> 64 µg/mL	0.125 µg/mL (≈ 0.172 µM)	64 µg/mL (≈ 88.3 µM)	Active	Active									Active	4.4
C=C[C@]1(C)C[C@@H](OC(=O)CSC(C)(C)CNC(=O)Cn2cc(CNc3ccc(Cl)cc3)nn2)[C@]2(C)[C@H](C)CC[C@]3(CCC(=O)[C@H]32)[C@@H](C)[C@@H]1O	64 µg/mL (≈ 89.6 µM)	8 µg/mL (≈ 11.2 µM)	> 64 µg/mL	8 µg/mL (≈ 11.2 µM)	2 µg/mL (≈ 2.8 µM)												
C=C[C@]1(C)C[C@@H](OC(=O)CSC(C)(C)CNC(=O)Cn2cc(COc3ccc([N+](=O)[O-])cc3)nn2)[C@]2(C)[C@H](C)CC[C@]3(CCC(=O)[C@H]32)[C@@H](C)[C@@H]1O	64 µg/mL (≈ 88.2 µM)	4 µg/mL (≈ 5.51 µM)	> 64 µg/mL	1 µg/mL (≈ 1.38 µM)	4 µg/mL (≈ 5.51 µM)												
C=C[C@]1(C)C[C@@H](OC(=O)CSC(C)(C)CNC(=O)Cn2cc(Cc3ccccc3)nn2)[C@]2(C)[C@H](C)CC[C@]3(CCC(=O)[C@H]32)[C@@H](C)[C@@H]1O	64 µg/mL (≈ 96.3 µM)	4 µg/mL (≈ 6.02 µM)	> 64 µg/mL	4 µg/mL (≈ 6.02 µM)	16 µg/mL (≈ 24.1 µM)												
C=C[C@]1(C)C[C@@H](OC(=O)CSC(C)(C)CNC(=O)Cn2cc(CNc3ccc(C)cc3)nn2)[C@]2(C)[C@H](C)CC[C@]3(CCC(=O)[C@H]32)[C@@H](C)[C@@H]1O	64 µg/mL (≈ 92.2 µM)	16 µg/mL (≈ 23.1 µM)	> 64 µg/mL	2 µg/mL (≈ 2.88 µM)	16 µg/mL (≈ 23.1 µM)												
C=C[C@]1(C)C[C@@H](OC(=O)CSC(C)(C)CNC(=O)Cn2cc(CNc3ccc(CCC)cc3)nn2)[C@]2(C)[C@H](C)CC[C@]3(CCC(=O)[C@H]32)[C@@H](C)[C@@H]1O	> 64 µg/mL	4 µg/mL (≈ 5.54 µM)	> 64 µg/mL	16 µg/mL (≈ 22.2 µM)	32 µg/mL (≈ 44.3 µM)												
C=C[C@]1(C)C[C@@H](OC(=O)CSC(C)(C)CNC(=O)Cn2cc(CC3CC3)nn2)[C@]2(C)[C@H](C)CC[C@]3(CCC(=O)[C@H]32)[C@@H](C)[C@@H]1O	64 µg/mL (≈ 102 µM)	8 µg/mL (≈ 12.7 µM)	> 64 µg/mL	0.5 µg/mL (≈ 0.795 µM)	4 µg/mL (≈ 6.36 µM)												
C=C[C@]1(C)C[C@@H](OC(=O)CSC(C)(C)CNC(=O)Cn2cc(COc3ccc(C)cc3)nn2)[C@]2(C)[C@H](C)CC[C@]3(CCC(=O)[C@H]32)[C@@H](C)[C@@H]1O	16 µg/mL (≈ 23 µM)	0.062 µg/mL (≈ 0.0892 µM)	> 64 µg/mL	0.062 µg/mL (≈ 0.0892 µM)	> 64 µg/mL												
C=C[C@]1(C)C[C@@H](OC(=O)CSC(C)(C)CNC(=O)Cn2cc(CNc3ccc(OC)cc3)nn2)[C@]2(C)[C@H](C)CC[C@]3(CCC(=O)[C@H]32)[C@@H](C)[C@@H]1O	64 µg/mL (≈ 90.1 µM)	4 µg/mL (≈ 5.63 µM)	> 64 µg/mL	2 µg/mL (≈ 2.82 µM)	4 µg/mL (≈ 5.63 µM)												
